Source: patent publication US6908935B2, “Calcium receptor modulating agents” (Amgen Inc., priority 2002, dated 2005)

What follows are molecules tested against T1, human parathyroid cell Ca^2+ receptor (hPCaR) (Homo sapiens, UniProt P41180) (assay: [Ca2+]i measurement with fluo-3 in HEK 293 4.0-7 cells stably transfected with hPCaR). Conditions: fluo-3 fluorescence (485/530 nm), effect on [Ca^2+]i.
T1 construct: expressed in transfected cells
T1 sequence (P41180 20-1078): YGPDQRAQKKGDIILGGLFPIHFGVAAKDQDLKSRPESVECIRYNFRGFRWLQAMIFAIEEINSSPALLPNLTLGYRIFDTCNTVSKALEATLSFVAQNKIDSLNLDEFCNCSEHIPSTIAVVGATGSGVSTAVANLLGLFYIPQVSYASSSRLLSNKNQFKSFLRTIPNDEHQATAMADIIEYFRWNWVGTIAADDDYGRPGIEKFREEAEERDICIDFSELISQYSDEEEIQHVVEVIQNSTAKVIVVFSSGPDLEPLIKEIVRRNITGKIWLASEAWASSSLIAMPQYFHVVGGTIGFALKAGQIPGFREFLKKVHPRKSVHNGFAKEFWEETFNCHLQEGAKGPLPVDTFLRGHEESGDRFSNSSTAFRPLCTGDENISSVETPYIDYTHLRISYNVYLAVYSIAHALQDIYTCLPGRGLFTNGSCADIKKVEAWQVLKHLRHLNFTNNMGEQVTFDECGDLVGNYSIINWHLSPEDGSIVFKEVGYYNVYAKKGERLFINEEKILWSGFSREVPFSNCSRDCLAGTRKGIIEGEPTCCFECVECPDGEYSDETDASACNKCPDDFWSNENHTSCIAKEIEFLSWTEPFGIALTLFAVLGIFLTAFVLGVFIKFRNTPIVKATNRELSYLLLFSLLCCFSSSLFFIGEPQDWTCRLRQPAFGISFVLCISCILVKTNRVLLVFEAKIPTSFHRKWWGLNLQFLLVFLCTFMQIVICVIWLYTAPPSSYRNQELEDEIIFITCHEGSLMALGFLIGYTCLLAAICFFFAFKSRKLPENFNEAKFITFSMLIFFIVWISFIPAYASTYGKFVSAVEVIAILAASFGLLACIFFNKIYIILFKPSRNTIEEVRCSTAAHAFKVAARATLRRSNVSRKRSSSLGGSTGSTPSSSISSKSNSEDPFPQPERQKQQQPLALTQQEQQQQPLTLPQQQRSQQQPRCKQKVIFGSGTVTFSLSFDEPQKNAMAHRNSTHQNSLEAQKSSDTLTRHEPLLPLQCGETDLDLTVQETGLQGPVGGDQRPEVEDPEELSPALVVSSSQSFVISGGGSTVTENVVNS
Format: cell-based
How it was run: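 HEK 293 cells stably expressing human parathyroid Ca2+ receptor (clone 4.0-7), loaded with 2 μM fluo-3 AM for 30 min at 37 °C in parathyroid cell buffer (pH 7.45) with 1 mM CaCl2 and 0.5% BSA. After compound addition, intracellular Ca2+ followed by fluorescence at 485 nm excitation/530 nm emission.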

Row | SMILES | EC50 [µM]
1 | COc1ccc(CN[C@H](C)c2cccc3ccccc23)cc1-n1cccc1 [(1R)-N-((4-(methyloxy)-3-(1H-pyrrol-1-yl)phenyl)methyl)-1-(1-naphthalenyl)ethanamine] | ≤ 10
2 | COc1cccc([C@@H](C)NCc2ccc(OC)c(-c3cccc(C(N)=O)c3)c2)c1 [2′-(methyloxy)-5′-((((1R)-1-(3-(methyloxy)phenyl)ethyl)amino)methyl)-1,1′-biphenyl-3-carboxamide] | ≤ 10
3 | C[C@@H](NCc1ccc(Cl)c(-c2cccnc2)c1)c1ccccc1 [Example 434, (1R)-N-((4-chloro-3-(3-pyridinyl)phenyl)methyl)-1-phenylethanamine] | ≤ 10
4 | COc1cccc([C@@H](C)NCc2ccc(OC)c(-c3cccc(C(=O)O)c3)c2)c1 [2′-(methyloxy)-5′-((((1R)-1-(3-(methyloxy)phenyl)ethyl)amino)methyl)-1,1′-biphenyl-3-carboxylic acid] | ≤ 10
5 | COc1ccc(CN[C@H](C)c2ccccc2)cc1-c1ccc(Cl)cc1 [(1R)-N-((4′-chloro-6-(methyloxy)-1,1′-biphenyl-3-yl)methyl)-1-phenylethanamine] | ≤ 10
6 | CCn1nc2ccc(-c3cc(CN[C@H](C)c4ccccc4)ccc3OC)cc2n1 [(1R)-N-((3-(2-ethyl-2H-1,2,3-benzotriazol-5-yl)-4-(methyloxy)phenyl)methyl)-1-phenylethanamine] | ≤ 10
7 | C[C@@H](NCc1ccc(Cl)c(-c2ccc(OCC(F)(F)F)nc2)c1)c1cccc2ccccc12 [(1R)-N-((4-chloro-3-(6-((2,2,2-trifluoroethyl)oxy)-3-pyridinyl)phenyl)methyl)-1-(1-naphthalenyl)ethanamine] | ≤ 10
8 | COc1ccc(CN[C@H](C)c2cccc3ccccc23)cc1-c1cccc(C(=O)O)c1 [2′-(methyloxy)-5′-((((1R)-1-(1-naphthalenyl)ethyl)amino)methyl)-1,1′-biphenyl-3-carboxylic acid] | ≤ 10
9 | COc1ccccc1-c1cc(CN[C@H](C)c2ccccc2)ccc1OC [Example 253, (1R)-N-((2′,6-bis(methyloxy)-1,1′-biphenyl-3-yl)methyl)-1-phenylethanamine] | ≤ 10
10 | C[C@@H](NCc1ccc(I)c(-c2ccc(C(F)(F)F)cc2)c1)c1cccc2ccccc12 [(1R)-N-((6-iodo-4′-(trifluoromethyl)-1,1′-biphenyl-3-yl)methyl)-1-(1-naphthalenyl)ethanamine] | ≤ 10
11 | Cc1ccc(-c2cccc(CN[C@H](C)c3ccc4ccccc4c3)c2)cn1 [(1R)-N-((3-(6-methyl-3-pyridinyl)phenyl)methyl)-1-(2-naphthalenyl)ethanamine] | ≤ 10
12 | COc1ccc(CN[C@H](C)c2ccccc2)cc1-n1cccc1 [(1R)-N-((4-(methyloxy)-3-(1H-pyrrol-1-yl)phenyl)methyl)-1-phenylethanamine] | ≤ 10
13 | CCN(CC)CCCOc1ccc(-c2cc(CN[C@H](C)c3cccc(OC)c3)ccc2OC)cn1 [N-((3-(6-((3-(diethylamino)propyl)oxy)-3-pyridinyl)-4-(methyloxy)phenyl)methyl)-N-((1R)-1-(3-(methyloxy)phenyl)ethyl)amine] | ≤ 10
14 | COc1ccc(CN[C@H](C)c2ccccc2)cc1-c1ccc(C(=O)N(C)C)cc1 [N,N-dimethyl-2′-(methyloxy)-5′-((((1R)-1-phenylethyl)amino)methyl)-1,1′-biphenyl-4-carboxamide] | ≤ 10
15 | COc1ccc(CN[C@H](C)c2ccccc2)cc1-c1ccc2ocnc2c1 [Example 264, (1R)-N-((3-(1,3-benzoxazol-5-yl)-4-(methyloxy)phenyl)methyl)-1phenylethanamine] | ≤ 10
16 | COc1cccc([C@@H](C)NCc2ccc(OC)c(-c3cccnc3)c2)c1 [(1R)-1-(3-(methyloxy)phenyl)-N-((4-(methyloxy)-3-(3-pyridinyl)phenyl)methyl)ethanamine] | ≤ 10
17 | COc1ccc(CN[C@H](C)c2ccccc2)cc1-c1ccc2c(c1)OC(F)(F)O2 [(1R)-N-((3-(2,2-difluoro-1,3-benzodioxol-5-yl)-4-(methyloxy)phenyl)methyl)-1-phenylethanamine] | ≤ 10
18 | COc1cccc([C@@H](C)NCc2ccc(OC)c(-c3ccc4nsnc4c3)c2)c1 [(1R)-N-((3-(2,1,3-benzothiadiazol-5-yl)-4-(methyloxy)phenyl)methyl)-1-(3-(methyloxy)phenyl)ethanamine] | ≤ 10
19 | COc1ccc([C@@H](C)NCc2ccc(OC)c(-c3ccc4[nH]ccc4c3)c2)cc1 [(1R)-N-((3-(1H-indol-5-yl)-4-(methyloxy)phenyl)methyl)-1-(4-(methyloxy)phenyl)ethanamine] | ≤ 10
20 | COc1cccc([C@@H](C)NCc2ccc(OC)c(-c3ccc4[nH]ccc4c3)c2)c1 [(1R)-N-((3-(1H-indol-5-yl)-4-(methyloxy)phenyl)methyl)-1-(3-(methyloxy)phenyl)ethanamine] | ≤ 10

The remaining lines, values ahead:

Row | EC50 [µM] | SMILES
21 | ≤ 10 | COc1ccc(CN[C@H](C)c2ccc(C)cc2)cc1-c1ccccc1 [(1R)-N-((6-(methyloxy)-1,1′-biphenyl-3-yl)methyl)-1-(4-methylphenyl)ethanamine]
22 | ≤ 10 | COc1ccc(-c2cc(CN[C@H](C)c3ccccc3)ccc2F)cc1 [Example 465, (1R)-N-((6-fluoro-4′-(methyloxy)-1,1′-biphenyl-3-yl)methyl)-1-phenylethanamine]
23 | ≤ 10 | COc1cccc([C@@H](C)NCc2cccc(-c3ccoc3)c2)c1 [Example 222, (1R)-N-((3-(3-furanyl)phenyl)methyl)-1-(3-(methyloxy)phenyl)ethanamine]
24 | ≤ 10 | COc1ccc(CN[C@H](C)c2ccccc2)cc1-c1ccc(C(F)(F)F)cc1 [(1R)-N-((6-(methyloxy)-4′-(trifluoromethyl)-1,1′-biphenyl-3-yl)methyl)-1-phenylethanamine]
25 | ≤ 10 | COc1cccc(-c2cccc(CN[C@H](C)c3ccccc3)c2)c1 [(1R)-N-((3′-(methyloxy)-1,1′-biphenyl-3-yl)methyl)-1-phenylethanamine]
26 | ≤ 10 | COc1ccc(CN[C@H](C)c2ccccc2)cc1-c1ccc(=O)n(CC(F)(F)F)c1 [5-(2-(methyloxy)-5-((((1R)-1-phenylethyl)amino)methyl)phenyl)-1-(2,2,2-trifluoroethyl)-2(1H)-pyridinone]
27 | ≤ 10 | COc1ccc(CN[C@H](C)c2ccc3ccccc3c2)cc1-c1cncc(C(N)=O)c1 [5-(2-(methyloxy)-5-((((1R)-1-(2-naphthalenyl)ethyl)amino)methyl)phenyl)-3-pyridinecarboxamide]
28 | ≤ 10 | COc1ccc(CN[C@H](C)c2ccc(C)cc2)cc1-c1cccnc1 [(1R)-N-((4-(methyloxy)-3-(3-pyridinyl)phenyl)methyl)-1-(4-methylphenyl)ethanamine]
29 | ≤ 10 | COc1cccc([C@@H](C)NCc2ccc(OC)c(-c3ccc4c(c3)OC(F)(F)O4)c2)c1 [(1R)-N-((3-(2,2-difluoro-1,3-benzodioxol-5-yl)-4-(methyloxy)phenyl)methyl)-1-(3-(methyloxy)phenyl)ethanamine]
30 | ≤ 10 | COc1ccc(CN[C@H](C)c2cccc3ccccc23)cc1-c1coc(C)n1 [(1R)-N-((3-(2-methyl-1,3-oxazol-4-yl)-4-(methyloxy)phenyl)methyl)-1-(1-naphthalenyl)ethanamine]
31 | ≤ 10 | COc1ccc(-c2cc(CN[C@H](C)c3cccc4ccccc34)ccc2NS(C)(=O)=O)cc1 [N-(4′-(methyloxy)-5-((((1R)-1-(1-naphthalenyl)ethyl)amino)methyl)-1,1′-biphenyl-2-yl)methanesulfonamide]
